From US20250257064A1, “TRIFLUOROMETHYL-SUBSTITUTED SULFONAMIDE AS BCL-2-SELECTIVE INHIBITOR” (Chia Tai Tianqing Pharmaceutical Group Co., Ltd., priority 2018, published 2025)
pIC50: −log10 of the molar value.

Tested on: RS4;11 cells
Experiment: Inhibitory effect on proliferation of RS4;11 cells (CCK-8)
Assay type: cell-based, human
Details: Homo sapiens, RS4-11, 72 h
Summary of the method: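 RS4;11 cells were seeded at 1×10^5 cells/mL in RPMI with 5% FBS and incubated 24 h at 37° C, 5% CO2 before compound addition in duplicate. Inhibition was calculated against untreated and blank controls. IC50 came from a four-parameter fit of log concentration versus inhibition.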

pIC50: 8.64
SMILES: CC1(C)CCC(CN2CCN(c3ccc(C(=O)NS(=O)(=O)c4ccc(NCC5CCOCC5)c([N+](=O)[O-])c4)c(Oc4cnc5[nH]ccc5c4)c3)CC2)=C(c2ccc(C(F)(F)F)cc2Cl)C1 [Compound 1-1, 4-(4-{[2-(2-chloro-4-trifluoromethylphenyl)-4,4-dimethylcyclohex-1-enyl]methyl}-piperazin-1-yl)-N-({3-nitro-4-[(tetrahydro-2H-pyran-4-ylmethyl)amino]phenyl}sulfonyl)-2-(1H-pyrrolo[2,3-b]pyridin-5-yloxy)-benzamide]
